Columns and labels:
[1] = system: calf thymus DNA; test: Radiation-induced calf thymus DNA fragmentation assay; assay type: biochemical; settings: 50 Gy
Experimental: Plasmid DNA (pBR322) or calf thymus DNA samples with or without varying concentrations of SDG (R,R), SDG (S,S) and SDG (commercial) were exposed to γ-radiation with a Mark 1 cesium (Cs-137) irradiator (J. L. Shepherd, San Fernando, Calif.) at a dose rate of 1.7 Gy/min in phosphate buffered saline, pH 7.4 (PBS).
The effect of test compounds on radiation-induced strand breaks in DNA was determined using calf thymus DNA (Sigma, St. Louis, Mo.). DNA (500 ng) in PBS (pH 7.4) was mixed with varying concentrations (25-250 μM) of SDG (R,R), SDG (S,S) and SDG (commercial) and irradiated at 50 Gy for 30 min. A second series of experiments were performed at varying concentrations ranging from 0.5-10 μM. Samples were mixed with loading dye and subjected to agarose (1%) gel electrophoresis in TAE buffer (pH, 8.3) at 100 V. The gel was stained with ethidium bromide (0.5 μg/ml) for 40 min, washed for 20 min and then visualized on a UV trans-illuminator (Bio-Rad, Hercules, Calif.). The captured gel images were scanned and the density of the calf thymus DNA fragments was determined by Gel-Pro image analyzer program (Media Cybernetics, Silver Spring, Md.). The density of the low mol. wt (<6,000 bps) and the high mol. wt (>6,000 bps) fragments of calf thymus DNA was expressed as % of the total density (low mol wt.+high mol. wt.).

[2] = system: murine primary lung fibroblasts; test: Morphological detection of apoptotic cells, fibroblasts; assay type: cell-based, mouse; settings: SDG pre-treatment; irradiated
Experimental: Fibroblasts and endothelial cells were isolated from C57/bl6 mouse. For fibroblast isolation, mouse lungs were harvested, minced, and incubated with dispase (2 mg/ml) for 45 minutes. Pieces were plated out and fibroblasts were cultured as described previously and used between passages 3 and 10. Pulmonary microvascular endothelial cells (PMVEC) were isolated from murine lungs as described previously. Briefly, freshly harvested mouse lungs were treated with collagenase followed by isolation of cells by adherence to magnetic beads coated with mAb to platelet endothelial cell adhesion molecule (PECAM). […]
Apoptotic cells are morphologically characterized by condensation of nucleus and cytoplasm, membrane blebbing, cell shrinkage, and breakdown of nuclear DNA, first in large segments and subsequently in nucleosomal fragments and finally formation of well-enclosed apoptotic bodies. Percentage of cells undergoing apoptosis was determined microscopically from the slides used for micronuclei detection (cytogenetic damage). At least, 500 cells were counted for each experiment (experiment done twice) and percent apoptotic cells were determined as follows: % Cell Death=Na/Nt×100, where Na is the number of cells with apoptotic bodies and Nt is the total number of cells analyzed. Gene Expression Analysis by Quantitative Real Time PCR (qPCR)

[3] = Hypochlorite scavenging with APF/HPF fluorescent probes (sodium hypochlorite); settings: commercially available SDG; FIG. 15B
Experimental: (§1) The fluorescence of ROS probes APF and HPF in PBS was measured at excitation/emission at 490 nm/515 nm in presence of hypochlorite or after γ-radiation exposure. Data is expressed as relative fluorescence units (RFU).

[4] = Scavenging of γ-radiation-induced hypochlorite (APF/HPF fluorescence in PBS)
Experimental: as §1

[5] = system: human epithelial cells; test: BaP-induced DNA adduct formation; assay type: cell-based; settings: given alone or in combination
Excerpt: Similarly, SDG prevents genotoxic stress in human epithelial cells exposed to BaP. Exposure of cells to a potent carcinogen such as BaP, induces genotoxic stress as indicated by increased levels of p53 protein (FIG. 25). […] SDG also prevents oxidative DNA damages in human epithelial cells exposed to BaP. Exposure of cells to a potent carcinogen such as BaP, induces oxidative DNA damage as indicated by increased levels of gamma-H2AX, a marker for double-stranded DNA breaks (FIG. 26). […] Furthermore, SDG prevents DNA adduct formation in human epithelial cells exposed to BaP. Exposure of cells to a potent carcinogen such as BaP, induces the formation of DNA adducts (FIG. 27). DNA adducts are pieces of DNA covalently linked to a carcinogen and is directly linked to the development of malignancy. The DNA adduct levels is decreased by the presence of SDG or its metabolites ED and EL given alone or in combination.

[6] = system: Nrf2-regulated antioxidant enzymes (AOE); test: SDG dosing study: antioxidant enzyme expression in lung after oral gavage; assay type: in vivo, mouse
Experimental: SDG doses of 5, 25, 50 and 100 mg/Kg body weight were administered orally to mice (n=5 per dose) and 4 hours later tissues were collected for analysis. Plasma concentrations of SDG and its bioactive metabolites ED, EL and SECO were analyzed by liquid chromatography and mass spectrometry and are expressed in ng/mL (FIG. 39) while gene expression levels of Nrf2-regulated antioxidant enzymes (AOE), an intracellular target of SDG and its metabolites, were determined in lung tissues from the same animals using qRT-PCR (FIG. 40). Gene expression levels of HO1, NQO1 and GST, increased 2-3 fold with as little as 5 mg SDG/Kg and reached an average of 6-fold increase over baseline with 100 mg/Kg SDG.

[7] = Tolerability of SDG given twice daily for 7 days; assay type: in vivo; settings: 100 mg/Kg given twice daily for 7 days
[8] = typical range, earlier work; read-out: EC50 values for free radical scavenging and antioxidant effects; cited from earlier work

Structure (SMILES): COc1cc(C[C@@H](CO[C@@H]2O[C@H](CO)[C@@H](O)[C@H](O)[C@H]2O)[C@H](CO[C@@H]2O[C@H](CO)[C@@H](O)[C@H](O)[C@H]2O)Cc2ccc(O)c(OC)c2)ccc1O [SDG, secoisolariciresinol diglucoside]
- Concentration at which maximum radioprotection of genomic DNA is achieved [1]: approximately 5.0 μM
- Radioprotective properties of SDG and metabolites compared ([1]; 10 μM of each agent): equipotent
- Extent of apoptosis [2]: significantly reduced
- ClO^− scavenging [3]: decreased ClO^− dose-dependently
- Ratio APF/HPF [4]: decreased
- ClO^− generation from radiation exposure ([4]; 25 and 50 Gy): blunted
- γ-radiation-induced APF and HPF fluorescence ([4]; 50 Gy): dose-dependently decreased
- Initial slope for decrease of APF fluorescence ([4]; 50 Gy, SDG dose response): 1,816.30
- Initial slope for decrease of HPF fluorescence ([4]; 50 Gy, SDG dose response): 695.75
- DNA adduct levels [5]: decreased
- Gene expression levels of HO1, NQO1 and GST in lung, increase ([6]; 5 mg SDG/Kg oral, 4 hours): 2-3 fold
- Gene expression levels of HO1, NQO1 and GST in lung, average increase over baseline ([6]; 100 mg/Kg SDG oral, 4 hours): 6 fold
- Protein levels in lung tissues ([6]; oral SDG dosing study): lower but yet significant increase
- Intolerance / toxicity [7]: neither intolerance nor toxicity
- EC50 [8]: 130 to 200 µM
